Where two headings read alike, the source gives them in different places.

For experiment [1], the system named is SGK-1 dependent phosphorylation of GSK3beta in U2OS cells. The experiment in a line: SGK-1 dependent phosphorylation of GSK3beta in U2OS cells overexpressing recombinant SGK-1 and GSK3beta. In kind it is cell-based, human. The following applies: U2OS cells, 6 h incubation, ratio of phosphorylated GSK3beta to total GSK3beta, read-out: IC50 values for inhibition of SGK-1 dependent phosphorylation of GSK3beta in U2OS cells. On the procedure:
B) Determination of the Effect on SGK-1 Dependent Phosphorylation of GSK3beta in U2OS Cells
U2OS cells were cultured in 1:1 Dulbecco modified Eagle medium/Ham's F12 and 10% heat-inactivated fetal calf serum (FCS Gold) at 37° C., 7% CO2 and 95% relative humidity. […] Cell suspension mixed with BacMam viruses was seeded in 96 well pCLEAR plates (Greiner) at 3×10^4 cells per well in 250 μl medium. […] 1 μl of a solution of the test compound at 250×final concentration was added. Cells are incubated at 37° C., 7% CO2 and 95% relative humidity. […] After removing the fixation solution, cells were permeabilised by adding 200 μl PBT (0.2% Triton X-100 in PBS) per well for 5 min. After removing PBT, cells were blocked by adding 200 μl of blocking solution (1% bovine serum albumine in PBS) per well. Blocking solution was removed and 50 μl of primary antibody (rabbit anti-phospho-GSK-3beta (Ser9), and mouse anti-GSK-3beta) were added for 1 h. […] After washing the cells 3 times with PBS, 200 μl of PBS were added. Fluorescence signals were measured with the ImageXpress MICRO (Molecular Devices).

For experiment [2], the target named is recombinant human SGK-1 enzyme (Homo sapiens, UniProt O00141). The experiment in a line: Enzymatic activity assay: SGK-1 substrate peptide phosphorylation (Caliper lab-chip mobility shift). It counts as biochemical. The following applies: peptide substrate 1 μM, ATP 10 μM, 60 min at 37° C., read-out: IC50 values for inhibition of SGK-1 enzymatic activity. On the procedure:
In one of the cellular assays, the SGK-1 dependent phosphorylation of glycogen synthase kinase 3beta (GSK3beta) in U2OS cells was measured, in another one, a functional electrophysiological assay, the SGK-1 dependent activation of epithelial Na^+ channel (ENaC) currents in A6 cell monolayers, and in another one chondrocyte hypertrophic differentiation in mouse chondrogenic ATDC5 cells.
A) Enzymatic Activity Assay
For the determination of the compound dose response, a 10 mM DMSO stock solution was diluted and tested in a ten-point, three-fold dilution series run in duplicate beginning at 30 μM final concentration. Data were analyzed using a four-parameter curve fit with a fixed minimum and maximum experimentally defined as the average positive and negative controls on each plate.

Sequence of recombinant human SGK-1 enzyme (O00141 whole entry, looked up): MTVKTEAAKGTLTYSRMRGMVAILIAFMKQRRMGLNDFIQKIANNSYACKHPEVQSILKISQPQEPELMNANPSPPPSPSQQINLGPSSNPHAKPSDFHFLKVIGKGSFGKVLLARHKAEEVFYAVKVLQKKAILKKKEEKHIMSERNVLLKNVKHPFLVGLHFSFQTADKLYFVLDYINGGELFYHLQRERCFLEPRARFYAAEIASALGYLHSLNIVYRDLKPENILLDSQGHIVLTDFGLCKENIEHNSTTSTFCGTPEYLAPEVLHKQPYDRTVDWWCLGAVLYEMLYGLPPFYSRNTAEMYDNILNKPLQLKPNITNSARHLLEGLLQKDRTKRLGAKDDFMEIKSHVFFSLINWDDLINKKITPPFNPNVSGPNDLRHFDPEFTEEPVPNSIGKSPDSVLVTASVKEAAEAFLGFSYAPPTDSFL

As for `COCCc1nc(-c2ccc(NS(=O)(=O)c3cc(Cl)sc3Cl)cc2)nc2[nH]nc(N)c12` [Example 509], the IC50 is 2.5 µM in experiment [1] and 0.31 µM in experiment [2].

Consider `Cc1ccc(F)c(S(=O)(=O)Nc2ccc(-c3ncc4c(N)n[nH]c4n3)cc2)c1` [Example 455], for which the IC50 in experiment [1] is 0.39 µM; in experiment [2], below 0.0015 µM.

Take `COc1ccc(Cl)c(S(=O)(=O)Nc2ccc(-c3nc(OC4CCN(CCF)CC4)c4c(C)n[nH]c4n3)cc2)c1` [Example 341]: the IC50 came to 0.063 µM in experiment [1] and 0.0049 µM in experiment [2].

For `Cc1nc(-c2ccc(NS(=O)(=O)c3cc(F)c(F)cc3Cl)cc2)nc2[nH]nc(N)c12` [Example 170], the IC50 in experiment [1] stood at 0.51 µM; in experiment [2], 0.054 µM.

In the case of `COc1ccc(C#N)c(S(=O)(=O)Nc2ccc(-c3ncc4c(N)n[nH]c4n3)cc2)c1` [Example 522], the IC50 in experiment [1] was found to be 0.29 µM; in experiment [2], 0.0024 µM.

For the compound `Cc1ccc(C#N)c(S(=O)(=O)Nc2ccc(-c3nc(CCCCl)c4cn[nH]c4n3)cc2)c1` [Example 146], the IC50 in experiment [1] is 11 µM; in experiment [2] it was 0.047 µM.

`Cc1n[nH]c2nc(-c3ccc(NS(=O)(=O)c4cc(Cl)ccc4Cl)cc3)nc(OC3CCN(CCF)CC3)c12` [Example 342]: the IC50 in experiment [1] was determined as 0.28 µM; in experiment [2] it was 0.006 µM.

In the case of `COc1ccc(C#N)c(S(=O)(=O)Nc2ccc(-c3nc(OCC(C)C)c4c(N)n[nH]c4n3)cc2)c1` [Example 336], the figures for the IC50 in experiment [1] and in experiment [2] were 0.19 µM and 0.0055 µM, respectively.

In the case of `Cc1n[nH]c2nc(-c3ccc(NS(=O)(=O)c4ccccc4F)cc3)nc(OCCCN)c12` [Example 211], the IC50 worked out at 0.08 µM in experiment [1] and 0.0023 µM in experiment [2].

With `CC(C)COc1nc(-c2ccc(NS(=O)(=O)c3cc(Cl)ccc3F)cc2)nc2[nH]nc(N)c12` [Example 334], the values for the concentration for half-maximal inhibition (IC50) in experiment [1] and in experiment [2] were 0.72 µM and 0.02 µM, respectively.

For `COc1nc(-c2ccc(NS(=O)(=O)c3cc(Cl)ccc3F)cc2)nc2[nH]ncc12` [Example 136], the IC50 came to 1.7 µM in experiment [1] and 0.041 µM in experiment [2].

Take `Nc1n[nH]c2nc(-c3ccc(NS(=O)(=O)c4cccc(Cl)c4F)cc3)ncc12` [Example 515]: the IC50 in experiment [1] amounted to 0.53 µM; in experiment [2], 0.35 µM.

As for `Cc1n[nH]c2nc(-c3ccc(NS(=O)(=O)c4ccccc4F)cc3)nc(OC3CCNCC3F)c12` (centres unmarked) [Example 297], the IC50 was determined as 0.08 µM in experiment [1] and 0.0018 µM in experiment [2].

Take `O=S(=O)(Nc1ccc(-c2nc(N[C@H]3CC[C@@H](O)CC3)c3cn[nH]c3n2)cc1)c1cc(Cl)ccc1F` [Example 77]: the IC50 in experiment [1] worked out at 3.6 µM; in experiment [2], 0.0039 µM.

In the case of `COc1nc(-c2ccc(NS(=O)(=O)c3cc(C)ccc3C#N)cc2)nc2[nH]ncc12` [Example 135], the IC50 in experiment [1] was 1.9 µM; in experiment [2], 0.012 µM.

Take `CC(C)COc1nc(-c2ccc(NS(=O)(=O)c3ccccc3Cl)cc2)nc2[nH]nc(N)c12` [Example 316]: the IC50 in experiment [1] came out at 0.27 µM; in experiment [2], 0.48 µM.

With `COc1ccc(F)c(S(=O)(=O)Nc2ccc(-c3nc(OCC(F)(F)F)c4c(N)n[nH]c4n3)cc2)c1` [Example 197], the IC50 came to 0.065 µM in experiment [1] and 0.003 µM in experiment [2].

Turning to `O=S(=O)(Nc1ccc(-c2nc(O[C@H]3CCCC[C@H]3O)c3cn[nH]c3n2)cc1)c1cc(Cl)ccc1Cl` [Example 82], the IC50 in experiment [1] stood at 2.1 µM; in experiment [2], 0.012 µM.

In the case of `O=S(=O)(Nc1ccc(-c2nc(OCCCCO)c3cn[nH]c3n2)cc1)c1cc(Cl)ccc1F` [Example 35], the IC50 in experiment [1] was 5.7 µM; in experiment [2], 0.0032 µM.

As for `O=S(=O)(Nc1ccc(-c2nc(O[C@@H]3CCCC[C@@H]3O)c3cn[nH]c3n2)cc1)c1cc(Cl)ccc1F` (racemic) [Example 81], the IC50 in experiment [1] was determined as 1.7 µM; in experiment [2], 0.011 µM.

Consider `Cc1ccc(F)c(S(=O)(=O)Nc2ccc(-c3nc(OC4CCNCC4F)c4c(C)n[nH]c4n3)cc2)c1` (centres unmarked) [Example 298], for which the results for the IC50 in experiment [1] and in experiment [2] were 0.043 µM and 0.0023 µM, respectively.

In the case of `Cc1ccc(F)c(S(=O)(=O)Nc2ccc(-c3nc(OCCC(N)=O)c4cn[nH]c4n3)cc2)c1` [Example 116], the IC50 is 4.8 µM in experiment [1] and below 0.0015 µM in experiment [2].

Regarding `Cc1nc(-c2ccc(NS(=O)(=O)c3cc(Cl)ccc3C#N)cc2)nc2[nH]nc(N3CCCC4(COC4)C3)c12` [Example 499], the IC50 in experiment [1] is 8.8 µM; in experiment [2], 0.0089 µM.

Consider `Cc1nc(-c2ccc(NS(=O)(=O)c3cc4c(cc3Cl)OCCCO4)cc2)nc2[nH]nc(N)c12` [Example 476], for which the IC50 in experiment [1] is 3 µM; in experiment [2] it was 0.0039 µM.

Take `Cc1nc(-c2ccc(NS(=O)(=O)c3ccccc3F)cc2)nc2[nH]nc(N)c12` [Example 169]: the IC50 was 0.25 µM in experiment [1] and 0.11 µM in experiment [2].

For `O=S(=O)(Nc1ccc(-c2nc(N3CCNCC3)c3cn[nH]c3n2)cc1)c1cc(Cl)ccc1F` [Example 16], the IC50 in experiment [1] is 0.95 µM; in experiment [2], below 0.0012 µM.

`CC(C)COc1nc(-c2ccc(NS(=O)(=O)c3cccc(F)c3Cl)cc2)nc2[nH]nc(N)c12` [Example 324]: the IC50 in experiment [1] and in experiment [2] was 0.33 µM throughout.

In the case of `O=S(=O)(Nc1ccc(-c2nc(C3CC3)c3cn[nH]c3n2)cc1)c1cc(Cl)ccc1F` [Example 141], the IC50 in experiment [1] turned out to be 0.15 µM; in experiment [2] it was 0.0065 µM.

On to `Cc1nc(-c2ccc(NS(=O)(=O)c3cccc(Cl)c3F)cc2)nc2[nH]nc(N)c12` [Example 171], for which the IC50 amounted to 0.87 µM in experiment [1] and 0.04 µM in experiment [2].

For the compound `O=S(=O)(Nc1ccc(-c2nc(O[C@H]3CC[C@@H](O)CC3)c3cn[nH]c3n2)cc1)c1cc(Cl)ccc1Cl` [Example 80], the IC50 in experiment [1] is 0.45 µM; in experiment [2], below 0.0015 µM.

For `Cc1n[nH]c2nc(-c3ccc(NS(=O)(=O)c4cc(Cl)ccc4C#N)cc3)nc(OCCCN)c12` [Example 220], the IC50 in experiment [1] is 0.17 µM; in experiment [2], below 0.0015 µM.

Take `Cc1n[nH]c2nc(-c3ccc(NS(=O)(=O)c4cc(Cl)ccc4Cl)cc3)nc(OC3CCNCC3F)c12` (centres unmarked) [Example 303]: the IC50 in experiment [1] was 0.057 µM; in experiment [2] it was 0.0022 µM.

Regarding `Cc1ccc(F)c(S(=O)(=O)Nc2ccc(-c3nc(OC4CCCNC4)c4c(C)n[nH]c4n3)cc2)c1` (centres unmarked) [Example 338], the IC50 in experiment [1] came to 0.044 µM; in experiment [2] it was 0.0016 µM.

As for `COc1ccc(F)c(S(=O)(=O)Nc2ccc(-c3nc(OCC(C)C)c4c(N)n[nH]c4n3)cc2)c1` [Example 326], the IC50 in experiment [1] was 0.16 µM; in experiment [2] it was 0.0091 µM.

Turning to `O=S(=O)(Nc1ccc(-c2nc(N3CC(CO)C3)c3cn[nH]c3n2)cc1F)c1cc(Cl)ccc1F` [Example 441], the IC50 in experiment [1] came to 11 µM; in experiment [2], 0.021 µM.

For the compound `COCCc1nc(-c2ccc(NS(=O)(=O)c3cc(OC)ccc3C#N)cc2)nc2[nH]nc(N)c12` [Example 521], the IC50 in experiment [1] turned out to be 0.48 µM; in experiment [2], 0.065 µM.

As for `COc1ccc(F)c(S(=O)(=O)Nc2ccc(-c3nc(OCCCN)c4cn[nH]c4n3)cc2)c1` [Example 219], the IC50 was 0.23 µM in experiment [1] and below 0.0015 µM in experiment [2].

With `N#Cc1ccc(Cl)cc1S(=O)(=O)Nc1ccc(-c2nc(OCC(F)(F)F)c3c(N)n[nH]c3n2)cc1` [Example 196], the IC50 in experiment [1] was determined as 0.33 µM; in experiment [2] it was 0.0046 µM.

Take `Cc1nc(-c2ccc(NS(=O)(=O)c3cc(Cl)ccc3Cl)cc2)nc2[nH]nc(NC(=O)C3CC(O)C3)c12` (centres unmarked) [Example 536, 3-Hydroxy-cyclobutanecarboxylic acid {6-[4-(2,5-dichloro-benzenesulfonylamino)-phenyl]-4-methyl-1H-pyrazolo[3,4-d]pyrimidin-3-yl}-amide]: the IC50 in experiment [1] (Homo sapiens) is 3.1 µM.

Regarding `COc1ccc(Cl)c(S(=O)(=O)Nc2ccc(-c3ncc4c(C)n[nH]c4n3)cc2F)c1` [Example 533, 2-Chloro-N-[2-fluoro-4-(3-methyl-1H-pyrazolo[3,4-d]pyrimidin-6-yl)-phenyl]-5-methoxy-benzenesulfonamide], the IC50 in experiment [1] (Homo sapiens) amounted to 1.8 µM.

With `Cc1n[nH]c2nc(-c3ccc(NS(=O)(=O)c4cc(Cl)c(F)cc4F)cc3)ncc12` [Example 449, 5-Chloro-2,4-difluoro-N-[4-(3-methyl-1H-pyrazolo[3,4-d]pyrimidin-6-yl)-phenyl]-benzenesulfonamide], the IC50 in experiment [1] (Homo sapiens) was found to be 4.9 µM.

As to `Cc1nc(-c2ccc(NS(=O)(=O)c3cc(Cl)ccc3F)cc2)nc2[nH]ncc12` [Example 6, 5-Chloro-2-fluoro-N-[4-(4-methyl-1H-pyrazolo[3,4-d]pyrimidin-6-yl)-phenyl]-benzenesulfonamide], in experiment [1] (Homo sapiens), the IC50 came out at 2.6 µM.
